The values below come from patent publication US12590093B2, “Indolo[2′,3′:3,4]pyrido[2,1-b]quinazoline compound and use thereof” (INSTITUTE OF MEDICINAL BIOTECHNOLOGY CHINESE ACADEMY OF …, priority 2019, dated 2026).

The subject of one series is ABCA1. Briefly: ABCA1 up-regulation, luciferase reporter in ABCA1P-LUC HepG2 cells. The series is classed as cell-based. Particulars: Homo sapiens, 18 h, maximum up-regulation fold of luciferase activity versus DMSO, read-out: ABCA1 max. The method, then:
(§1) Experiments were conducted to detect whether the compounds of the disclosure can pharmacologically up-regulate the expression of ABCA1 and SR-BI. Firstly, ABCA1P-LUC HepG2 cells or SR-BI-LUC HepG2 cells in logarithmic growth phase were digested, diluted in cell culture medium, and counted. Cells were seeded into 96-well plates at a density of 5×10^5/ml (100 μL of the single-cell suspension per well). After cells fully adhered (about 6 h), the medium containing 10% FBS was removed, and the cells were gently washed with PBS. Serum free MEM-EBSS medium (200 μL per test well) and 2 μL of the compounds to be tested (at a final concentration of 10 μg/mL) were added to each test well, and meanwhile, DMSO at a corresponding concentration was added to the control well. After 18-24 h, the medium was removed. Cell Luciferase activity was measured by a method as described in the Luciferase Assay System. By optimizing the final concentration of DMSO, the treatment time of the compounds on the cells and the number of cells seeded into each well during the screening, the final screening conditions were determined as follows: each well is seeded with 5×10^4 cells, DMSO is added at a final concentration of 1%, and the sample is treated for 18 h.
(§2) The ratio of change of luciferase activity is calculated with the following formula: Ratio of change (%)=A/B×100;
(§3) wherein A is the luciferase activity (RLU) measured after the compound to be tested is added, and B is the luciferase activity (RLU) measured after the blank control (DMSO) is added. The luciferase activity of cells in each well was measured, and the dose-effect relationship between the concentration of the compound and the ratio of change of the luciferase activity was determined to calculate the EC50.

The test system of another series is SR-BI. Briefly: SR-BI up-regulation, luciferase reporter in SR-BI-LUC HepG2 cells. The series is classed as cell-based. Particulars: Homo sapiens, 18 h, maximum up-regulation of luciferase activity versus DMSO, read-out: SR-BI max. The method, then: as §1, §2, §3
On the technique in general: A reporter such as luciferase makes a cellular process visible.

The target of a further series is T1, LXRα (Homo sapiens, UniProt Q13133).
T1 construct: expressed in transfected cells; host or cells: HepG2
T1 sequence (Q13133 209-447 limits assumed): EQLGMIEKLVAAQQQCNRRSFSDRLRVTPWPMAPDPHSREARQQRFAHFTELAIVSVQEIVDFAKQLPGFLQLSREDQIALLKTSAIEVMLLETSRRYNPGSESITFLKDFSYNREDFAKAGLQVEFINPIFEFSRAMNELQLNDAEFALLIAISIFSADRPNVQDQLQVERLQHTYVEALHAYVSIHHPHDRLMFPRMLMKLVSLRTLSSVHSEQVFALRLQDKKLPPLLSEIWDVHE
Briefly: Nuclear receptor reporter gene transient transfection (pBIND-hLXRs-LBD) in HepG2 cells, LXRα. The series is classed as cell-based. Particulars: for LXRα max: HepG2 cells, reporter gene, 18-24 h; for LXRα agonist activity: result in words. The method, then:
(§4) HepG2 cells in logarithmic growth phase were digested, seeded into the white/clear 96-well plate at a density of 5×10^4 cells/well/100 μL until the cells grew to about 90% confluence and in good condition. 0.5 μL liposome (Lipofectamine® 2000) diluted with blank medium to 25 μL per well and incubated at room temperature for 5 min. The corresponding plasmids DNA (nuclear receptor plasmid:Gal4=1:10) were diluted in blank DMEM medium to 25 μL/well (mixing of two plasmids), then mixed evenly with the diluted liposome, and incubated for 20 min at 37° C. The DNA-liposome complex (50 μL per well) was added with the DMEM complete medium (100 μL per well) and mixed thoroughly to obtain a DNA-liposome complex cell culture. The cell medium was discarded, and replaced with the DNA-liposome complex cell culture (150 μL/well) (37° C., 5% CO2). After 6 h, the DNA-liposome complex cell culture medium was discarded, and 200 μL serum-free DMEM medium containing the compound at an appropriate concentration was added to each test well, and cultured for 18-24 h. The cell Luciferase activity was measured by the method as described in the Luciferase Assay System.

A further series deals with T2, LXRβ (Homo sapiens, UniProt P55055).
T2 construct: expressed in transfected cells; host or cells: HepG2
T2 sequence (P55055 222-460 limits assumed): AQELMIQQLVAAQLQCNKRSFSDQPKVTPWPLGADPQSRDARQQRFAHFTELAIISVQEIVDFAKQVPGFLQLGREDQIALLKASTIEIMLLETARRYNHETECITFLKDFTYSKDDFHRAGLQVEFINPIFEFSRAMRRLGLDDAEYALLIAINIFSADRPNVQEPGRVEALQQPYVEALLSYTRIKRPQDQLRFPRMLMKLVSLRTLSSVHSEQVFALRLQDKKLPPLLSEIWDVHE
Briefly: Nuclear receptor reporter gene transient transfection (pBIND-hLXRs-LBD) in HepG2 cells, LXRβ. The series is classed as cell-based. Particulars: for LXRβ max: HepG2 cells, reporter gene, 18-24 h; for LXRβ agonist activity: result in words. On the procedure:
as §4

For series [1] the following is noted: background statement; cited from earlier work.

On to `c1ccc2c(c1)CN1CCc3c([nH]c4ccccc34)C1N2` (stereo not shown) [TR2, 5,7,8,13,13b,14-hexahydroindolo[2′,3′:3,4]pyrido[2,1-b]quinazoline], for which the maximal fold induction in the series on ABCA1 is 1.66; with SR-BI, 1.76.

`O=c1c2ccccc2cc2n1CCc1c-2[nH]c2ccccc12` [TY3, 8,13-dihydroindolo[2′,3′:3,4]pyrido[1,2-b]isoquinolin-5(7H)-one]: the maximal fold induction came out at 1.97 in the series with ABCA1 and 1.41 in the series with SR-BI.

In the case of `O=C1c2ccccc2N(C(=O)C(F)(F)F)C2c3[nH]c4ccccc4c3CCN12` (stereo not shown) [TR6, 14-(2,2,2-trifluoroacetyl)-8,13,13b,14-tetrahydroindolo[2′,3′:3,4]pyrido[2,1-b]quinazolin-5(7H)-one], in the series on ABCA1, the maximal fold induction was 1.96. The maximal fold induction in the series with SR-BI was 1.56. In addition, on LXRα, the LXRα max worked out at 2.03 and the LXRα agonist activity result is given as “showed agonist activity”. Besides, at LXRβ, the LXRβ max was 1.69 and the LXRβ agonist activity entry was “showed agonist activity”.

Consider `O=c1c2ccccc2nc2n1CCc1c-2[nH]c2c(Cl)cccc12` [TR10, 12-chloro-8,13-dihydroindolo[2′,3′:3,4]pyrido[2,1-b]quinazolin-5(7H)-one], for which the figures for the maximal fold induction with ABCA1 and with SR-BI were 1.43 and 1.72, respectively.

Regarding `O=c1c2cccnc2nc2n1CCc1c-2[nH]c2c(F)cccc12` [TR13, 12-fluoro-8,13-dihydropyrido[2″,3″:4′,5′]pyrimido[1′,2′:1,2]pyrido[3,4-b]indol-5(7H)-one], the figures for the maximal fold induction in the series with ABCA1 and with SR-BI were 1.54 and 1.72, respectively.

Turning to `Cc1cccc2c3c([nH]c12)-c1nc2ncccc2c(=O)n1CC3` [TR12, 12-methyl-8,13-dihydropyrido[2″,3″: 4′,5′]pyrimido[1′,2′:1,2]pyrido[3,4-b]indol-5(7H)-one], the maximal fold induction is 1.51 with ABCA1 and 1.44 in the series on SR-BI.

As to `O=c1c2ccccc2nc2n1CCc1c-2[nH]c2ccccc12` [RUT, Rutaecarpine, reference compound], the maximal fold induction turned out to be 2.09 in the series on ABCA1 and 2.12 in the series on SR-BI. The oral bioavailability result in series [1] is reported as “very low”.

Turning to `O=c1c2cccnc2nc2n1CCc1c-2[nH]c2c(Cl)cccc12` [TR11, 12-chloro-8,13-dihydropyrido[2″,3″:4′,5′]pyrimido[1′,2′:1,2]pyrido[3,4-b]indol-5(7H)-one], the values for the maximal fold induction in the series with ABCA1 and in the series with SR-BI were 1.57 and 1.68, respectively.

As for `O=C1c2ccccc2OC2c3[nH]c4ccccc4c3CCN12` (stereo not shown) [TY4, 7,8,13,13b-tetrahydro-5H-benzo[5′,6′][1,3]oxazino[3′,2′:1,2]pyrido[3,4-13]indol-5-one], the figures for the maximal fold induction in the series with ABCA1 and with SR-BI were 1.5 and 1.22, respectively.

`O=c1c2cccnc2nc2n1CCc1c-2[nH]c2ccc(Cl)cc12` [TR14, 10-chloro-8,13-dihydropyrido[2″,3″: 4′,5′]pyrimido[1′,2′:1,2]pyrido[3,4-b]indol-5(7H)-one]: the maximal fold induction with ABCA1 was 1.48; in the series on SR-BI it was 1.57.

`O=c1c2ccccc2nc2c3[nH]c4ccccc4c3ccn12` [TR4, indolo[2′,3′:3,4]pyrido[2,1-b]quinazolin-5(13H)-one]: the maximal fold induction in the series on ABCA1 turned out to be 1.84. Moreover, the maximal fold induction with SR-BI was determined as 1.74. At LXRα, the LXRα max worked out at 1.84 and the LXRα agonist activity result is recorded as “showed agonist activity”. On LXRβ, the LXRβ max is on record as 1.88 and the LXRβ agonist activity result was “showed agonist activity”.
